# In patent US8198273B2, “Compounds and methods for kinase modulation, and indications therefor” (Plexxikon Inc., priority 2009, dated 2012):
# pIC50: −log10 of the molar value.
# Experiments:
# CYP3A4(BFC) = CYP3A4(BFC) (Homo sapiens, UniProt P08684); experiment: CYP3A4(BFC) inhibition (fluorescent substrate); assay type: in vitro ADME; settings: read-out: Cyp IC50 3A4(BFC)
# Protocol: (§1) CYP (Cytochrome P450) enzymes are the major drug metabolizing enzymes present in the liver. The inhibition of CYP enzyme activity (IC50) for each of CYP1A2, CYP2C19, CYP2C9, CYP2D6, CYP3A4(BFC) and CYP3A4(BQ) is determined for compounds, where inhibition of metabolism of a known substrate leads to a decrease in the fluorescence of the metabolized product. The fluorescence of the product is monitored as a function of compound concentration. Compounds are dissolved in dimethyl sulfoxide to a concentration of 100 mM. These are diluted 1 μL into 82 μL of acetonitrile. […] These are then serially diluted 1:1 (160 μL to 160 μL co-factor mix) for a total of 10 points. A 10 μL aliquot of this final mixture is dispensed into 384 well assay plates and incubated for 10 minutes at 37° C. […] Assay plates are incubated at 37° C. […] The signal versus compound concentration is used to determine the IC50. The enzymes and substrates for this assay are obtained from BD Biosciences.
# [1] = test system: SW620 colon adenocarcinoma cells (wild-type B-RAF); experiment: SW620 cell growth inhibition (ATPlite); assay type: cell-based; settings: Homo sapiens, SW-620, 72 h; SW620, 3 days incubation
# Protocol: (§2) Compounds are assessed in a variety of cell based assays. For example human cell lines with B-Raf V600E mutation (A375 melanoma, SKMEL3 melanoma, and COL0205 colon adenocarcinoma), as well as tumorigenic cell lines with wild-type B-RAF (SW620 colon adenocarcinoma) or with Ras mutations (SKMEL2 melanoma and IPC298 melanoma). Similar assays may be used to assess additional tumorigenic cell lines with Ras mutations, including, but not limited to, M202, M207, M243, M244, M296, S117, HCT116, HCT15, DLD1, MiaPaCa, A549, NCI-H23, NCI-H460, HOP62, MDA-MB231, Hs-578T, HL60, MOLT-4, and CCRF-CEM.
# (§3) On day 1, cells are counted, then centrifuged in a conical tube for 5 minutes at 1000 rpm. The supernatant is removed and cells are re-suspended as follows: • SW620 (ATCC catalog #CCL-27): resuspend in Leibovitz's L-15 medium, 2 mM L-glutamine, 10% fetal bovine serum to 6×10^4 cells/mL. • A375 (ATCC catalog #CRL-1619): resuspend in Dulbecco's modified Eagle's medium, 4 mM L-glutamine, 4.5 g/L D-glucose, 10% fetal bovine serum to 6×10^4 cells/mL. • COL0205 (ATCC catalog #CCL-222): resuspend in RPMI 1640, 2 mM L-glutamine, 1.5 g/L sodium bicarbonate, 4.5 g/L D-glucose, 10 mM HEPES, 1.0 mM sodium pyruvate, 10% fetal bovine serum to 6×10^4 cells/mL. • SKMEL2 (ATCC catalog #HTB-68): resuspend in Minimum Eagle essential medium, 2 mM L-glutamine, 1.5 g/L sodium bicarbonate, 0.1 mM non-essential amino acids, 1.0 mM sodium pyruvate, 10% fetal bovine serum to 6×10^4 cells/mL. • SKMEL3 (ATCC catalog #HTB-69): resuspend in McCoy's 5A medium, 1.5 mM L-glutamine, 15% fetal bovine serum to 6×10^4 cells/mL. • IPC298 (DSMZ catalog #ACC 251): resuspend in RPMI 1640, 2 mM L-glutamine, 10% fetal bovine serum to 6×10^4 cells/mL.
# (§4) The cells are plated, 50 μL in each well of a 96-well dish (Corning 3610) and incubated at 37° C. in 5% CO2 overnight, cells plated to a final concentration of cells as follows:
# (§5) On day 2, compound at a maximum concentration of 5 mM is serially diluted 1:3 for a total of 8 point titration with DMSO as a control. A 1 μL aliquot of each dilution point and control is added to 249 μL growth media and 50 μL is added to a well containing cells, providing 10 μM compound at the maximum concentration point. The cells are incubated for 3 days at 37° C. in 5% CO2.
# (§6) On day 5, ATPlite 1 step Luminescence Assay System (Perkin Elmer #6016739) is brought to room temperature along with the cell cultures. ATPlite is added 25 μL to each well, shake for 2 minutes, and the cells are incubated at room temperature for 10 minutes, then luminescence is read on Safire reader. The measured luminescence correlates directly with cell number, such that the reading as a function of compound concentration is used to determine the IC50 value.
# (§7) It is understood that the results of these assays may vary as assay conditions are varied. Inhibition levels determined under the conditions described herein represent a relative activity for the compounds tested under the specific conditions employed. The cell based assays are likely to show variability due to the complexity of the system and the sensitivity thereof to any changes in the assay conditions. […] Results for compounds that are tested and show substantially no inhibition below the highest tested concentration are represented as “-” in the tables below. In some instances, the compounds were not tested in all of the assays, or assay results were not valid, as indicated by NA in the tables below.
# Colo205 xenograft = Colo205 xenograft mouse model, tumor growth inhibition; assay type: in vivo; settings: COLO 205, 336 h, female nu/nu mice, 10 mg/kg daily for fourteen days
# Protocol: Tumor growth is monitored to approximately 100 mg size, and mice are distributed to treatment groups such that the mean tumor burden within a group is within 10% of the overall mean tumor burden. […] Mice are observed daily, with tumor burden and body weights measured twice a week. Animals with tumor burden above 1500-2000 mg and any animals in moribund condition are euthanized. The average tumor growth of vehicle control group mice is compared to the average tumor growth of the test compound mice. Percent tumor growth inhibition is calculated as 100×[(tumor growth control-tumor growth test compound)/tumor growth control].
# [2] = Relative solubility by turbidity in aqueous buffers of varying pH; assay type: physicochemical
# Protocol: As an indication of relative solubility, the turbidity of compounds in aqueous solutions is assessed. To assess possible compound properties in different physiological compartments, such as stomach, intestine, and blood, a series of aqueous buffers with varying pH is used. Thus each compound is diluted into four different physiologically relevant buffers and solution turbidity is measured by spectrophotometry.
# Compounds are dissolved at a concentration of 25 mM in dimethyl sulfoxide, then serially diluted 1:1 into a 96 well plate, diluting 10 times in pure dimethyl sulfoxide, with the final well of each row a dimethyl sulfoxide blank. In an assay plate, 99 μL of appropriate buffer is added to each well, and 1 μL of each sample dilution is added to the buffer, achieving a range of final total concentrations in aqueous solutions having different pH. The buffers used are Simulated Gastric Fluid (SGF-pH 1.5) 0.5M NaCl, pH 1.5; Simulated Intestinal fluid (SIF-pH 4.5 and pH 6.8) 0.05M NaH2PO4, pH 4.5 and 6.8; and Hepes Buffer (HEPES-pH 7.4) 10 mM HEPES, 150 mM NaCl, pH 7.4. Control compounds pyrene, estriol and propranolol HCl are also assessed. Plates are spun and then mixed for 1 minute, and the absorbance is read using a Tecan Safire II to read wavelengths in the visible range (490, 535, and 650 nm) at four locations per well, reflecting the degree of turbidity present. The average optical density for each wavelength in each well is graphed vs. compound concentration, and the concentration at which the curve crosses a threshold O.D. of 0.01 for each wavelength is reported as the endpoint turbidity assay result. The average of the three wavelengths is used to compare turbidity of compounds. Compounds are considered to have low solubility if the threshold concentration is <31.3 04, moderate solubility if the threshold concentration is 31.3 μM to 250 μM, and high solubility if the threshold concentration is >250 μM.
# [3] = test system: COLO205 colon adenocarcinoma cells (B-Raf V600E); experiment: COLO205 cell growth inhibition (ATPlite); assay type: cell-based; settings: Homo sapiens, COLO 205, 72 h; COLO205, 3 days incubation
# Protocol: as §2, §3, §4, §5, §6, §7
# [4] = test system: A375 melanoma cells (B-Raf V600E); experiment: A375 cell growth inhibition (ATPlite); assay type: cell-based; settings: Homo sapiens, A-375, 72 h; A375, 3 days incubation
# Protocol: as §2, §3, §4, §5, §6, §7
# CYP3A4(BQ) = CYP3A4(BQ) (Homo sapiens, UniProt P08684); experiment: CYP3A4(BQ) inhibition (fluorescent substrate); assay type: in vitro ADME; settings: read-out: Cyp IC50 3A4(BQ)
# Sequence of CYP3A4(BQ) (P08684 whole entry): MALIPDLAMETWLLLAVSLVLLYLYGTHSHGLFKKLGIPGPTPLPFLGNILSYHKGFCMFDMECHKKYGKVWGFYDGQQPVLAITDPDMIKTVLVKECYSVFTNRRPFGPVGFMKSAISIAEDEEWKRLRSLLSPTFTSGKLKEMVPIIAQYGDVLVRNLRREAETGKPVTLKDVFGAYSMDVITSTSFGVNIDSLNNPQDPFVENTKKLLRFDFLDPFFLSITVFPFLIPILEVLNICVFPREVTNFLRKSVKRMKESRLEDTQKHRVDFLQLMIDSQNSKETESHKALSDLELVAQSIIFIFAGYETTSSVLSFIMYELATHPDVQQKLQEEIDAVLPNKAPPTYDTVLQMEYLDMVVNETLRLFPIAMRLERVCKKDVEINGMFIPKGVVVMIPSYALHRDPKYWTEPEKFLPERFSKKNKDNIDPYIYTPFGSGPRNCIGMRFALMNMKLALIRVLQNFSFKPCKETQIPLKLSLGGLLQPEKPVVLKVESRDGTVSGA
# Protocol: as §1
# [5] = test system: SKMEL2 melanoma cells (Ras mutation); experiment: SKMEL2 cell growth inhibition (ATPlite); assay type: cell-based; settings: Homo sapiens, SK-MEL-2, 72 h; SKMEL2, 3 days incubation
# Protocol: as §2, §3, §4
# SKMEL2: 2,000 cells per well.
# as §5, §6, §7
# Sequence of CYP3A4(BFC) (P08684 whole entry): as above
smiles,measurement,setting,value
"O=C(c1c(F)ccc(NS(=O)(=O)c2cccnc2)c1F)c1c[nH]c2ncc(Cl)cc12 [P-2071, Pyridine-3-sulfonic acid [3-(5-chloro-1H-pyrrolo[2,3-b]pyridine-3-carbonyl)-2,4-difluoro-phenyl]-amide]",pIC50,CYP3A4(BFC),> 5.30
same,pIC50,[1],< 5.00
same,inhibition in vivo at 10 mg/kg,Colo205 xenograft,59%
same,"turbidity threshold (L, M, H) 7.4",[2]; HEPES pH 7.4,M (moderate solubility if the threshold concentration is 31.3 μM to 250 μM)
same,"turbidity threshold (L, M, H) 4.5",[2]; SIF pH 4.5,M (moderate solubility if the threshold concentration is 31.3 μM to 250 μM)
same,"turbidity threshold (L, M, H) 6.8",[2]; SIF pH 6.8,M (moderate solubility if the threshold concentration is 31.3 μM to 250 μM)
same,"turbidity threshold (L, M, H) 1.4",[2]; buffer pH 1.4 (SGF),M (moderate solubility if the threshold concentration is 31.3 μM to 250 μM)
same,pIC50,[3],> 6.00
same,pIC50,[4],> 6.00
same,pIC50,CYP3A4(BQ),> 5.30
same,pIC50,[5],< 5.00
